ChEMBL document CHEMBL1141196, “Grafting aminocyclopentane carboxylic acids onto the RGD tripeptide sequence generates low nanomolar alphaVbeta3/alphaVbeta5 integrin dual binders” (J Med Chem, 2005)

Assays:
Integrin alpha-V/beta-3 = Integrin alpha-V/beta-3 (Homo sapiens, UniProt P05106+P06756); assay: Displacement of [125I]-echistatin from alphavbeta3 integrin receptor; type: protein-complex assay
Integrin alpha-V/beta-5 = Integrin alpha-V/beta-5 (Homo sapiens, UniProt P06756+P18084); assay: Displacement of [125I]-echistatin from alpha-v-beta-5 integrin receptor; type: protein-complex assay
Sequence of Integrin alpha-V/beta-5 (P06756 31-889 limits assumed): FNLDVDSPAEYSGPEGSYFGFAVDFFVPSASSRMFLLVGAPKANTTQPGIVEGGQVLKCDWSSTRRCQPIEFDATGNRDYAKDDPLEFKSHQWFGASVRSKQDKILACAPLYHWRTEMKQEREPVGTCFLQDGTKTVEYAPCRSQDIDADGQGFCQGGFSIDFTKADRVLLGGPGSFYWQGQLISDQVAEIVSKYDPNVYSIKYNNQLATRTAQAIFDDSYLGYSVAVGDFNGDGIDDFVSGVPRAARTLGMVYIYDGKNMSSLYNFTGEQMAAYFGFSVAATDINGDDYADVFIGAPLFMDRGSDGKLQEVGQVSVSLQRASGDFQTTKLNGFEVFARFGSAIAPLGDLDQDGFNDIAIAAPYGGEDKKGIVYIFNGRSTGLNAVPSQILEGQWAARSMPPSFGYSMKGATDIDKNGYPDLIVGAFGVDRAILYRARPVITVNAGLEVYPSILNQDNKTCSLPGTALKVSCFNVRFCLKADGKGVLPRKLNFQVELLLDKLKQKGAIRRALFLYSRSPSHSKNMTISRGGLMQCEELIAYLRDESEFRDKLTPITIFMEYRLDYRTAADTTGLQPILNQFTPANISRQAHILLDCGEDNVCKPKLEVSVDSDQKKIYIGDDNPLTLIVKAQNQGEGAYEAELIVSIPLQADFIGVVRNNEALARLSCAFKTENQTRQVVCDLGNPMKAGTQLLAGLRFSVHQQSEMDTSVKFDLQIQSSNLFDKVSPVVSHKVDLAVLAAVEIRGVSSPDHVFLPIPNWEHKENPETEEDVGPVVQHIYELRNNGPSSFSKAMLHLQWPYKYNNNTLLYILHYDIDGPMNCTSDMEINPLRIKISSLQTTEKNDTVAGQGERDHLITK
Sequence of Integrin alpha-V/beta-5 (P06756 891-1048 limits assumed): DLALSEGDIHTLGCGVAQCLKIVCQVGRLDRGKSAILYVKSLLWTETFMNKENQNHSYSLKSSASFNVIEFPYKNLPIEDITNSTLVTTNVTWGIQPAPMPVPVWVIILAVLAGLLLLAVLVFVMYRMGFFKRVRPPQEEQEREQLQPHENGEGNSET
Sequence of Integrin alpha-V/beta-5 (P18084 24-799 limits assumed): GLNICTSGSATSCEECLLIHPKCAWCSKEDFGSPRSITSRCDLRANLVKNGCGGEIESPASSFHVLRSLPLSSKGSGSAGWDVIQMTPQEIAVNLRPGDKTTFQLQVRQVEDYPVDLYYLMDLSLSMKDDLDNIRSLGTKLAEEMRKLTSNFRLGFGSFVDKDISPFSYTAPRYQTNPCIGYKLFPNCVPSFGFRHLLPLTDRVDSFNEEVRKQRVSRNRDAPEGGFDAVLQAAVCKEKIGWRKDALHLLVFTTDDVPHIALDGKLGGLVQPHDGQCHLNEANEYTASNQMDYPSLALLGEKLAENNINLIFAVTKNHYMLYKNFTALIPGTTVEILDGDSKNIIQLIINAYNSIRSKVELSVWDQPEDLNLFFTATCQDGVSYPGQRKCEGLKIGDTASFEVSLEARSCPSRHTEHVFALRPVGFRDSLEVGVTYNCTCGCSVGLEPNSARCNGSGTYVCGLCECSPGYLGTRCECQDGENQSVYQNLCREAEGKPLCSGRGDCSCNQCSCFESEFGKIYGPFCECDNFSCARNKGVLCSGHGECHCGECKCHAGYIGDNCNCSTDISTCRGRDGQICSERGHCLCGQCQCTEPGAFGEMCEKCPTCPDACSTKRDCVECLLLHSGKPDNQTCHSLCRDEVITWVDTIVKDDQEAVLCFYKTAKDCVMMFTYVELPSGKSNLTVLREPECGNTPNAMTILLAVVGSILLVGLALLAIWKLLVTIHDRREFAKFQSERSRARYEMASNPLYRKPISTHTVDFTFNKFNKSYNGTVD

Sequence of Integrin alpha-V/beta-3 (P05106 27-788 limits assumed): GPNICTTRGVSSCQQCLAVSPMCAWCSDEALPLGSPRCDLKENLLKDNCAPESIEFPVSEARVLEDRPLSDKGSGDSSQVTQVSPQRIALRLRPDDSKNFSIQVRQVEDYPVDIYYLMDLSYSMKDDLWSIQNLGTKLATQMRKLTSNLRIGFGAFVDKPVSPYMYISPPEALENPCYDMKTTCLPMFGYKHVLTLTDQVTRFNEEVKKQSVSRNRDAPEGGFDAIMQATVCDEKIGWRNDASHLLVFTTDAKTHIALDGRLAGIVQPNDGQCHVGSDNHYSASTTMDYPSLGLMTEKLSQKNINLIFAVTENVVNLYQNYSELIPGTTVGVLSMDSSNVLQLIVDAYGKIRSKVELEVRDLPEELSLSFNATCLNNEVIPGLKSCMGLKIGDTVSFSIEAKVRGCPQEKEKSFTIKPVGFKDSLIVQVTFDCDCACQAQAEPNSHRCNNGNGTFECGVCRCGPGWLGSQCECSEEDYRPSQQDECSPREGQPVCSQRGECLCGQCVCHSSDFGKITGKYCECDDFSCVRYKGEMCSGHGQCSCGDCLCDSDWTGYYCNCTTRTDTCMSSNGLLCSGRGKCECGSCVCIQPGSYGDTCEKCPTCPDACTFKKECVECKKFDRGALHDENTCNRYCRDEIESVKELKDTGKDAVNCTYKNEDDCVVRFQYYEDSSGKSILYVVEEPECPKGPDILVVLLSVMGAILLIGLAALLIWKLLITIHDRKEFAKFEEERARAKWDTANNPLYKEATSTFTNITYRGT
Sequence of Integrin alpha-V/beta-3 (P06756 31-889 limits assumed): as the sequence (P06756 31-889 limits assumed) above
Sequence of Integrin alpha-V/beta-3 (P06756 891-1048 limits assumed): as the sequence (P06756 891-1048 limits assumed) above

IC50 (Integrin alpha-V/beta-3) | IC50 (Integrin alpha-V/beta-5) | Structure (SMILES)
9.93 nM | 26 nM | N=C(N)NCCC[C@@H]1NC(=O)[C@H]2CC[C@@H](C2)NC(=O)[C@H](CC(=O)O)NC(=O)CNC1=O
5.6 nM | 4.56 nM | N=C(N)NCCC[C@@H]1NC(=O)[C@@H]2C[C@H](NC(=O)[C@H](CC(=O)O)NC(=O)CNC1=O)[C@@H](O)C2
44.7 nM | 125 nM | N=C(N)NCCC[C@@H]1NC(=O)[C@@H]2C[C@H](NC(=O)[C@H](CC(=O)O)NC(=O)CNC1=O)[C@@H](O)[C@@H]2O
35.6 nM | 29.6 nM | N=C(N)NCCC[C@@H]1NC(=O)[C@H]2C[C@H](NC(=O)[C@H](CC(=O)O)NC(=O)CNC1=O)[C@@H](O)C2
1.5 nM | 0.59 nM | N=C(N)NCCC[C@@H]1NC(=O)[C@@H]2CC[C@H](C2)NC(=O)[C@H](CC(=O)O)NC(=O)CNC1=O
7.7 nM | 6.56 nM | N=C(N)NCCC[C@@H]1NC(=O)[C@@H]2CC[C@@H](C2)NC(=O)[C@H](CC(=O)O)NC(=O)CNC1=O
1.4 nM | 1.16 nM | NC(N)=NCCC[C@@H]1NC(=O)[C@H]2CC[C@@H]3CCC[C@H](NC(=O)[C@H](CC(=O)O)NC(=O)CNC1=O)C(=O)N32
713 nM | 1300 nM | N=C(N)NCCC[C@@H]1NC(=O)[C@H]2C[C@@H](NC(=O)[C@H](CC(=O)O)NC(=O)CNC1=O)[C@H](O)[C@@H]2O
133 nM | 411 nM | N=C(N)NCCC[C@@H]1NC(=O)[C@H]2C[C@@H](NC(=O)[C@H](CC(=O)O)NC(=O)CNC1=O)[C@H](O)[C@H]2O
7.2 nM | 13.1 nM | N=C(N)NCCC[C@@H]1NC(=O)[C@@H]2C[C@@H](O)[C@@H](C2)NC(=O)[C@H](CC(=O)O)NC(=O)CNC1=O
4.6 nM | 3.43 nM | N=C(N)NCCC[C@@H]1NC(=O)[C@H]2CC[C@H](C2)NC(=O)[C@H](CC(=O)O)NC(=O)CNC1=O
51.4 nM | 166 nM | N=C(N)NCCC[C@@H]1NC(=O)[C@@H]2C[C@H](NC(=O)[C@H](CC(=O)O)NC(=O)CNC1=O)[C@@H](O)[C@H]2O
